≈ marks a conversion by molar mass, not a printed value.
Experiments:
[1] = test system: Flu B Malaysia/2506/2004; assay: Flu B Malaysia/2506/2004, Neutral Red assay, MDCK; assay type: cell-based; details: control compound
[2] = test system: Flu B Malaysia/2506/2004; assay: Flu B Malaysia/2506/2004, Visual assay, MDCK; assay type: cell-based
[3] = test system: Flu B Shanghai/361/02; assay: Flu B Shanghai/361/02, Neutral Red assay, MDCK; assay type: cell-based; details: control compound, read-out: CTRL IC50
[4] = test system: Flu B Shanghai/361/02; assay: Flu B Shanghai/361/02, Visual assay, MDCK; assay type: cell-based
[5] = test system: Flu A (H5N1) Vietnam/1203/2004H; assay: microbe, parasite or virus in culture; assay type: cell-based
[6] = test system: Vaccinia virus; assay: microbe, parasite or virus in culture; assay type: cell-based
[7] = test system: HFF cells; details: human

NC(=O)c1ncn([C@@H]2O[C@H](CO)[C@@H](O)[C@H]2O)n1 [Ribavirin]
CTRL EC50 [1]: 10 µg/mL | IC50 ([1]; read-out: CTRL IC50): > 320 µg/mL | CTRL EC50 ([2]; control compound, Flu B Malaysia/2506/2004, Visual): 3 µg/mL | IC50 ([2]; read-out: CTRL IC50): > 320 µg/mL | IC50 [3]: > 320 µg/mL | CTRL SI ([4]; control compound, Flu B Shanghai/361/02, Visual): >160 | EC50 ([4]; read-out: CTRL EC50): 2 µg/mL (≈ 8.19 µM) | IC50 ([4]; read-out: CTRL IC50): > 320 µg/mL | CTRL SI [5]: >46 | IC50 ([5]; Influenza A virus, H5N1, MDCK, read-out: CTRL IC50): > 320 µg/mL

C=C(CC[C@@H](C(=O)O)[C@H]1C[C@H](O)[C@@]2(C)C3=C(CC[C@]12C)[C@@]1(C)CC[C@H](O)C(C)(C)[C@@H]1CC3)C(C)C [Sulphurenic acid]
Viral Inhibition Rate ([6]; 3.7 μg/mL): 36% | Viral Inhibition Rate ([6]; 11 μg/mL): 51% | Viral Inhibition Rate ([6]; 33 μg/mL): 58%

C=C(CC[C@@H](C(=O)O)[C@H]1CC[C@@]2(C)C3=C(CC[C@]12C)[C@@]1(C)CC[C@H](O)C(C)(C)[C@@H]1CC3)C(C)C [Eburicoic Acid]
inhibition at 11 µg/mL ([6]; Orthopoxvirus vaccinia, HFF, 11 μg/mL, read-out: Viral Inhibition Rate): 27% | inhibition at 33 µg/mL ([6]; Orthopoxvirus vaccinia, HFF, 33 μg/mL, read-out: Viral Inhibition Rate): 29% | inhibition at 100 µg/mL ([6]; Orthopoxvirus vaccinia, HFF, 100 μg/mL, read-out: Viral Inhibition Rate): 55%

C=C(CC[C@@H](C(=O)O)[C@H]1C[C@H](O)[C@@]2(C)C3=CC[C@H]4C(C)(C)[C@@H](O)CC[C@]4(C)C3=CC[C@]12C)C(C)C [Dehydrosulphurenic Acid]
Viral Inhibition Rate ([6]; 11 μg/mL): 16% | Viral Inhibition Rate ([6]; 33 μg/mL): 58%

Nc1ccn(C[C@@H](CO)OCP(=O)(O)O)c(=O)n1 [Cidofovir]
inhibition at 0.56 µg/mL ([6]; Orthopoxvirus vaccinia, HFF, 0.56 μg/mL, read-out: Viral Inhibition Rate): 11% | inhibition at 1.67 µg/mL ([6]; Orthopoxvirus vaccinia, HFF, 1.67 μg/mL, read-out: Viral Inhibition Rate): 53%

CCO [ethanol]
CC50 [7]: 7%

— patent US12622938B2 (priority 2020, dated 2026)
